{"source": "patent US9932350B2", "about": "“Inhibitors of IRAK4 activity” (MERCK SHARP & DOHME CORP., priority 2014, dated 2018)", "data": [{"target": "GST tagged IRAK4 (Homo sapiens (Human), UniProt Q9NWZ3)", "sequence (Q9NWZ3 whole entry)": "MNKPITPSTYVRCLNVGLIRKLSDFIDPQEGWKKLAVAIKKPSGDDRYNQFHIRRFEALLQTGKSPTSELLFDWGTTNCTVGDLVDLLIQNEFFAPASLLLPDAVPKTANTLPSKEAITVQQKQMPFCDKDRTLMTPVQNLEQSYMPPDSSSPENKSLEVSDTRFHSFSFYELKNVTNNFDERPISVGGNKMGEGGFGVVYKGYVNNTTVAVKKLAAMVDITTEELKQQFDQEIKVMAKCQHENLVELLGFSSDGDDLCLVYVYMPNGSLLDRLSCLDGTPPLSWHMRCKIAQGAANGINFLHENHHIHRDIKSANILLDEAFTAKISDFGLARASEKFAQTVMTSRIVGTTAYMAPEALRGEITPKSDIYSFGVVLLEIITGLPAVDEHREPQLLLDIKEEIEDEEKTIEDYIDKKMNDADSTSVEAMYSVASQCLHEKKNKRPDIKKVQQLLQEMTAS", "test": "IRAK4 Kinase Assay (IMAP fluorescence polarization)", "type": "biochemical", "conditions": "0.5 nM GST tagged IRAK4, 100 μM ATP, 30 minutes at 25° C.", "description": "The kinase activity of IRAK4 is determined by its ability to catalyze the phosphorylation of a fluorescent polypeptide substrate. The extent of phosphorylation is measured using the IMAP technology (Molecular Devices) where the phosphorylated fluorescent substrate binds to the large M(III)-based nanoparticles which reduces the rotational speed of the substrate and thus increases its fluorescent polarization (FP).\n20 μL reaction mixture contains 10 mM TriHCl, pH 7.2, 0.5 nM GST tagged IRAK4 (SignalChem), 100 nM fluorescent peptide substrate (RP7030, Molecular Devices), 100 μM ATP, 1 mM DDT, 1 mM MgCl2, and 0.01% Tween 20. The reaction is initiated by the addition of ATP. After incubation for 30 minutes at 25° C., 60 μL of Progressive IMAP Reagent (Molecular Devices) is added to stop the reaction. Change in RP7030's FP is determined by a FP reader (Analyst HT, LJL BioSystems).", "units": {"IC50": "nM"}, "values": [{"compound": "Fc1cc2ncnc(N[C@H]3CC[C@H](N4CCOCC4)CC3)c2cc1Br", "note": "[Example 2-11, 6-bromo-7-fluoro-N-[trans-4-(morpholin-4-yl)cyclohexyl]quinazolin-4-amine]", "IC50": 15}, {"compound": "N#Cc1ccc2ncnc(N[C@H]3CC[C@H](N4CCOC5(CC5)C4)CC3)c2c1", "note": "[Example 3-26, 4-{[trans-4-(4-oxa-7-azaspiro[2.5]oct-7-yl)cyclohexyl]amino} quinazoline-6-carbonitrile]", "IC50": 46}, {"compound": "N#Cc1ccc2ncnc(N[C@H]3CC[C@H](N4CCCC(CN5CCOCC5)C4)CC3)c2c1", "note": "(single isomer, unassigned) [Example 3-42, 4-({trans-4-[(3R or 3S)-3-(morpholin-4-ylmethyl)piperidin-1-yl]cyclohexyl}amino) quinazoline-6-carbonitrile]", "IC50": 5}, {"compound": "COC1CN([C@H]2CC[C@H](Nc3ncnc4ccc(C#N)cc34)CC2)C1", "note": "[Example 3-29, 4-{[trans-4-(3-methoxyazetidin-1-yl)cyclohexyl]amino} quinazoline-6-carbonitrile]", "IC50": 11}, {"compound": "N#Cc1ccc2ncnc(N[C@H]3CC[C@H](N4CCN(C(=O)C(F)F)CC4)CC3)c2c1", "note": "[Example 6-12, 4-({trans-4-[4-(difluoroacetyl)piperazin-1-yl]cyclohexyl}amino) quinazoline-6-carbonitrile]", "IC50": 27}, {"compound": "N#Cc1ccc2ncnc(N[C@H]3CC[C@H](N4CCC(F)CC4)CC3)c2c1", "note": "[Example 3-19, 4-{[trans-4-(4-fluoropiperidin-1-yl)cyclohexyl]amino} quinazoline-6-carbonitrile]", "IC50": 3}, {"compound": "CO[C@@H]1CCN([C@H]2CC[C@H](Nc3ncnc4ccc(C#N)cc34)CC2)C1", "note": "[Example 3-40, 4-({trans-4-[(3R)-3-methoxypyrrolidin-1-yl]cyclohexyl}amino) quinazoline-6-carbonitrile]", "IC50": 51}, {"compound": "N#Cc1ccc2ncnc(N[C@H]3CC[C@H](N4CCN(C(=O)[C@@H]5CCCO5)CC4)CC3)c2c1", "note": "[Example 6-11, 4-[(trans-4-{4-[(2S)-tetrahydrofuran-2-ylcarbonyl]piperazin-1-yl}cyclohexyl)amino] quinazoline-6-carbonitrile]", "IC50": 11}, {"compound": "CN(C)[C@H]1CC[C@H](Nc2ncnc3ccc(Br)cc23)CC1", "note": "[Example 2-6, trans-N′-(6-bromoquinazolin-4-yl)-N,N-dimethylcyclohexane-1,4-diamine]", "IC50": 9}, {"compound": "N#Cc1ccc2ncnc(N[C@H]3CC[C@H](N4CCC(F)CC4)[C@@H]4C[C@@H]43)c2c1", "note": "[Example 7-4, 4-{[(1S,2S,5S,6R)-5-(4-fluoropiperidin-1-yl)bicyclo[4.1.0]hept-2-yl]amino}quinazoline-6-carbonitrile]", "IC50": 7}, {"compound": "CC(F)(F)C(=O)N1CCN([C@H]2CC[C@H](Nc3ncnc4ccc(C#N)cc34)CC2)CC1", "note": "[Example 6-6, 4-({trans-4-[4-(2,2-difluoropropanoyl)piperazin-1-yl]cyclohexyl}amino) quinazoline-6-carbonitrile]", "IC50": 16}, {"compound": "Fc1ccc2ncnc(N[C@H]3CC[C@H](N4CCOCC4)CC3)c2c1", "note": "[Example 2-9, 6-fluoro-N-[trans-4-(morpholin-4-yl)cyclohexyl]quinazolin-4-amine]", "IC50": 113}, {"compound": "N#Cc1ccc2ncnc(NC3CCC(N4CCOCC4)[C@@H]4C[C@H]34)c2c1", "note": "(stereo partly drawn) [Example 2-18, 4-{[(1S,6R)-5-(morpholin-4-yl)bicyclo[4.1.0]hept-2-yl]amino}quinazoline-6-carbonitrile]", "IC50": 56}, {"compound": "CC(=O)N1CCN([C@H]2CC[C@H](Nc3ncnc4ccc(C#N)cc34)CC2)CC1", "note": "[Example 6-2, 4-{[trans-4-(4-acetylpiperazin-1-yl)cyclohexyl]amino} quinazoline-6-carbonitrile]", "IC50": 11}, {"compound": "COc1cc2c(N[C@H]3CC[C@H](N4CCOCC4)CC3)ncnc2cc1F", "note": "[Example 2-12, 7-fluoro-6-methoxy-N-[trans-4-(morpholin-4-yl)cyclohexyl]quinazolin-4-amine]", "IC50": 58}, {"compound": "N#Cc1ccc2ncnc(N[C@H]3CC[C@H](N4CCOC(CO)C4)CC3)c2c1", "note": "(single isomer, unassigned) [Example 3-11, 4-({trans-4-[(2R or 2S)-2-(hydroxymethyl)morpholin-4-yl]cyclohexyl}amino) quinazoline-6-carbonitrile]", "IC50": 7}, {"compound": "N#Cc1ccc2ncnc(N[C@H]3CC[C@H](N4CCN(C(=O)C5CC5)CC4)CC3)c2c1", "note": "[Example 6-1, 4-({Trans-4-[4-(cyclopropylcarbonyl)piperazin-1-yl]cyclohexyl}amino)quinazoline-6-carbonitrile]", "IC50": 3}, {"compound": "N#Cc1ccc2ncnc(N[C@H]3CC[C@H](N4CCCC(F)C4)CC3)c2c1", "note": "(stereo partly drawn) [Example 3-35, 4-{[trans-4-(3-fluoropiperidin-1-yl)cyclohexyl]amino} quinazoline-6-carbonitrile]", "IC50": 38}, {"compound": "N#Cc1ccc2ncnc(N[C@H]3CC[C@H](N4CCCC(C(F)(F)F)C4)CC3)c2c1", "note": "(single isomer, unassigned) [Example 3-2, 4-({cis or trans-4-[(3R or S)-3-(trifluoromethyl)piperidin-1-yl]cyclohexyl}amino) quinazoline-6-carbonitrile]", "IC50": 33}, {"compound": "N#Cc1ccc2ncnc(N[C@H]3CC[C@H](N4CCOC(CF)C4)CC3)c2c1", "note": "(stereo partly drawn) [Example 3-27, 4-({trans-4-[2-(fluoromethyl)morpholin-4-yl]cyclohexyl}amino) quinazoline-6-carbonitrile]", "IC50": 8}, {"compound": "CC1CC(N2CCOCC2)CCC1Nc1ncnc2ccc(C#N)cc12", "note": "(single isomer, unassigned) [Example 8-1, 4-{[(1R,2R,4R or 1S,2S,4S)-2-methyl-4-(morpholin-4-yl)cyclohexyl]amino}quinazoline-6-carbonitrile]", "IC50": 14}, {"compound": "CS(=O)(=O)C1CCN([C@H]2CC[C@H](Nc3ncnc4ccc(C#N)cc34)CC2)C1", "note": "(stereo partly drawn) [Example 3-13, 4-({trans-4-[3-(methylsulfonyl)pyrrolidin-1-yl]cyclohexyl}amino) quinazoline-6-carbonitrile]", "IC50": 14}, {"compound": "N#Cc1ccc2ncnc(N[C@H]3CC[C@H](N4CCOC(C(F)(F)F)C4)CC3)c2c1", "note": "(single isomer, unassigned) [Example 3-48, 4-({trans-4-[(2R or 2S)-2-(trifluoromethyl)morpholin-4-yl]cyclohexyl}amino) quinazoline-6-carbonitrile]", "IC50": 256}, {"compound": "N#Cc1ccc2ncnc(NC3CCC(N4CCCC(C(F)(F)F)C4)CC3)c2c1", "note": "(single isomer, unassigned) [Example 3-3, 4-({cis or trans-4-[(3R or S)-3-(trifluoromethyl)piperidin-1-yl]cyclohexyl}amino) quinazoline-6-carbonitrile]", "IC50": 7}, {"compound": "CC(F)C(=O)N1CCN([C@H]2CC[C@H](Nc3ncnc4ccc(C#N)cc34)CC2)CC1", "note": "(stereo partly drawn) [Example 6-7, 4-({trans-4-[4-(2-fluoropropanoyl)piperazin-1-yl]cyclohexyl}amino) quinazoline-6-carbonitrile]", "IC50": 14}, {"compound": "N#Cc1ccc2ncnc(N[C@H]3CC[C@H](N4C[C@@H]5C[C@H]4CO5)CC3)c2c1", "note": "[Example 3-18, 4-({trans-4-[(1S,4S)-2-oxa-5-azabicyclo[2.2.1]hept-5-yl]cyclohexyl}amino) quinazoline-6-carbonitrile]", "IC50": 114}, {"compound": "N#Cc1ccc2ncnc(N[C@H]3CC[C@H](N4CCN(C(=O)CC5COC5)CC4)CC3)c2c1", "note": "[Example 6-18, 4-({trans-4-[4-(oxetan-3-ylacetyl)piperazin-1-yl]cyclohexyl}amino) quinazoline-6-carbonitrile]", "IC50": 10}, {"compound": "N#Cc1ccc2ncnc(N[C@H]3CC[C@H](N4CC[C@@H](O)C4)CC3)c2c1", "note": "[Example 3-38, 4-({trans-4-[(3R)-3-hydroxypyrrolidin-1-yl]cyclohexyl}amino) quinazoline-6-carbonitrile]", "IC50": 15}, {"compound": "N#Cc1ccc2ncnc(N[C@H]3CC[C@H](N)CC3)c2c1", "note": "[Example 1-1, 4-[(Trans-4-aminocyclohexyl)amino]quinazoline-6-carbonitrile]", "IC50": 31}, {"compound": "N[C@H]1CC[C@H](Nc2ncnc3ccc(Br)cc23)CC1", "note": "[Example 1-2, trans-N-(6-bromoquinazolin-4-yl)cyclohexane-1,4-diamine]", "IC50": 27}, {"compound": "CC(C)(F)C(=O)N1CCN([C@H]2CC[C@H](Nc3ncnc4ccc(C#N)cc34)CC2)CC1", "note": "[Example 6-5, 4-({trans-4-[4-(2-fluoro-2-methylpropanoyl)piperazin-1-yl]cyclohexyl}amino) quinazoline-6-carbonitrile]", "IC50": 12}, {"compound": "N#Cc1ccc2ncnc(N[C@H]3CC[C@H](N4CCOC5CCCC54)CC3)c2c1", "note": "(stereo partly drawn) [Example 3-24, 4-({trans-4-[(4aS,7aS or 4aR,7aR)-hexahydrocyclopenta[b] [1,4]oxazin-4(4aH)-yl]cyclohexyl}amino) quinazoline-6-carbonitrile]", "IC50": 11}, {"compound": "N#Cc1ccc2ncnc(N[C@H]3CC[C@H](N4CCC(F)(F)CC4)CC3)c2c1", "note": "[Example 3-54, 4-{[trans-4-(4,4-difluoropiperidin-1-yl)cyclohexyl]amino} quinazoline-6-carbonitrile]", "IC50": 3}, {"compound": "CN(C)[C@H]1CC[C@H](Nc2ncnc3cc(F)c(F)cc23)CC1", "note": "[Example 2-4, trans-N′-(6,7-difluoroquinazolin-4-yl)-N,N-dimethylcyclohexane-1,4-diamine]", "IC50": 303}, {"compound": "N#Cc1ccc2ncnc(N[C@H]3CC[C@H](N4CCN(C(=O)CCO)CC4)CC3)c2c1", "note": "[Example 6-22, 4-({trans-4-[4-(3-hydroxypropanoyl)piperazin-1-yl]cyclohexyl}amino) quinazoline-6-carbonitrile]", "IC50": 9}]}]}
